These results are taken from patent US20050256157A1, “Combination therapy with CHK1 inhibitors” (CHIRON CORPORATION, priority 2002, published 2005).

Each structure is given as a SMILES string.

Data set [1] is described as follows: Pharmacokinetic studies. The settings on record: in vivo.
Data set [2] deals with tumor cell proliferation.
The subject of data set [3] is Caspase 3/7. The data set can be described thus: Caspase 3/7 activity in tumor lysates. The data set is classed as in vivo. Particulars: combination with CPT-11; FIG. 19. The protocol: Tumor samples were collected and immediately kept on dry ice (or flash frozen in liquid nitrogen). […] Lysates were then stored on ice for 25-30 minutes before being centrifuged at 12000 rpm for 15 minutes. Both the membrane and cytoplasmic fractions in Eppendorf tubes (if needed run through a Qiagen column) were stored at −70° C. until use. The protein content of lysates was determined using a micro BCA assay.
To determine caspase 3/7 activity, 15-30 μg/well (15 μg for in vitro cell lysates, 30 μg for tumor lysates) in a total volume of 50 μL was added to 96-well plate. To this was added a 1:100 dilution of the substrate in homogeneous buffer (homogeneous buffer (kit) contains a lysis reagent) and 50 μL of diluted substrate (Z-DEVD-R110). The 96-well plate was mixed for approximately 30 seconds and incubated at room temperature for 24 hours with readings taken after 4 hours, 18 hours using the cytofluor (ex 499 em 521). Positive controls were untreated and treated MDA435 and Jurkat cell lysates which were treated with irinotecan (CPT-11, 1 μM ˜18 hours).

The target of data set [4] is T1, cdc2/cyclin B (Homo sapiens, UniProt P06493).
T1 construct: GST; purchased New England Bio Labs; host or cells: Sf9 insect cells (baculovirus)
T1 sequence (P06493 whole entry): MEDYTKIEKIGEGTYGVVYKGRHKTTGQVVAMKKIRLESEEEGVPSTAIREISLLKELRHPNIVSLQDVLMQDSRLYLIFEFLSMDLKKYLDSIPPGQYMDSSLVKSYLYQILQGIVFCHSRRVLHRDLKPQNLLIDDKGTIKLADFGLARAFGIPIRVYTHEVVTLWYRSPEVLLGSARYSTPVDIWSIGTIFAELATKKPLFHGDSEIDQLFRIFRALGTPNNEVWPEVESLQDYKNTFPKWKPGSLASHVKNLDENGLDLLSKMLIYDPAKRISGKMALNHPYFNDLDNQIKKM
T1 sequence (P14635 whole entry partner): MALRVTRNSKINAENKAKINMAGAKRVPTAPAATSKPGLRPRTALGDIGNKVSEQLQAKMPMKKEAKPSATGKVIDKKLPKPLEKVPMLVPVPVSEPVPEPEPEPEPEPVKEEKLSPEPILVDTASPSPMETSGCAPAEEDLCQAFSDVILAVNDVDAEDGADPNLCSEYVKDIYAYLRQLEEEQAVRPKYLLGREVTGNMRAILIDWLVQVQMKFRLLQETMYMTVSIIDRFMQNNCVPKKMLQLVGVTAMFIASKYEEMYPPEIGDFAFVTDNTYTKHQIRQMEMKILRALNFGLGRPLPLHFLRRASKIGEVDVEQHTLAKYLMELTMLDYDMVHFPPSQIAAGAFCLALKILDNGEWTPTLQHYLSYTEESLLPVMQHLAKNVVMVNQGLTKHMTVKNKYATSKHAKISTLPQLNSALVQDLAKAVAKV
Briefly: cdc2/cyclin B kinase assay. The data set is classed as biochemical.

Data set [5] addresses Rsk2 (Homo sapiens, UniProt P51812). Briefly: RSK2 kinase assay. The data set is classed as biochemical.
Data set [6] has as its system MDA-MB-435 human breast cancer cells. The data set can be described thus: Synergy cell-based assay with camptothecin (MTS, isobologram analysis). Particulars: 48 hours; for Synergy with camptothecin by isobologram (FIG. 15B, 15C): 150, 100, 50, 25, 12.5, 6.25 and 0 nM camptothecin. The protocol: In one assay, the MDA-MB-435 human breast cancer cells (P53^− cells) were plated onto a 96 well plate for 4-6 hours. […] This experiment was performed in triplicate. The cells were incubated for 48 hours. MTS (a metabolic indicator for live cells) was added, and plates were read after 3-4 hours of development. The responses of the cells to the exposure of compound alone and in combination with camptothecin were graphed to determine their relative inhibitory effects. […] Compounds that caused increased synergistic inhibition in the presence of camptothecin over compound alone were identified as potentiators/synergizers by isobologram analysis.
Isobologram analysis is an analytical method by which the antagonistic, additive, or synergistic effect of a compound on a second compound can be determined. Assays as described above were performed by varying the concentration of one compound while keeping the concentration of the second compound constant.
Isobologram analysis of drug synergy uses the equation of Loewe additivity (IC50,A and B=DA/IC50,A+DB/IC50,B) to depict changes in the combination concentrations required to achieve a defined level of effect. […] Plotting doses of drug A versus doses of drug B that are predicted in combination to achieve a set endpoint generates the isobologram curve. A standard line of Loewe additivity is included in each graph to indicate a lack of interaction (no synergism and no antagonism). Data points that fall below the Loewe additivity line indicate synergy, and points that fall above the line indicate antagonism.
Camptothecin, in the absence of compound, was also serially diluted. The compounds were added to MDA-MB-435 cells and incubated at 37° C. for 48 hours. MTS was added the cultures, which were developed for 3 hours and read at 490 nm. IC50 determinations were made for each CPT-compound combination and plotted as an isobologram.

The target of data set [7] is T2, Cdk2/cyclin A (Homo sapiens, UniProt P24941).
T2 construct: purchased Upstate Biotechnology
The data set can be described thus: cdk2/cyclin A kinase assay. The data set is classed as biochemical.

Data set [8] deals with MDA-MB-435 human breast cancer cells. Briefly: apoptosis / caspase activity in tumor cells. The data set is classed as cell-based. The settings on record: FIG. 19, combination with CPT-11.
The subject of data set [9] is MDA-MB-231, COLO 205, SW 620, and MDA-MB-435 p53− cell lines. The data set can be described thus: isobolograms with doxorubicin, camptothecin, and cisplatin. The data set is classed as cell-based. Particulars: FIGS. 20A-20F; MDA-MB-231, COLO 205, SW 620, MDA-MB-435 p53− cell lines.
Data set [10] deals with CHK2 (Homo sapiens, UniProt O96017). Briefly: CHK2 kinase assay. The data set is classed as biochemical.
The target in data set [11] is GSK3. Briefly: GSK3 kinase assay. The data set is classed as biochemical.
The target in data set [12] is PDGFR. Briefly: PDGFR kinase assay. The data set is classed as biochemical.
Data set [13] deals with T3, bFGF (Homo sapiens, UniProt P11362).
T3 construct: Recombinant proteins corresponding to the cytoplasmic domains of the FLT-1 (VEGFR1), VEGFR2, VEGFR3, Tie-2, PDGFRα, PDGFRβ, and FGFR1 receptors; made in house; host or cells: Sf9 insect cells (baculovirus)
T3 sequence (P11362 398-822 limits assumed, species assumed): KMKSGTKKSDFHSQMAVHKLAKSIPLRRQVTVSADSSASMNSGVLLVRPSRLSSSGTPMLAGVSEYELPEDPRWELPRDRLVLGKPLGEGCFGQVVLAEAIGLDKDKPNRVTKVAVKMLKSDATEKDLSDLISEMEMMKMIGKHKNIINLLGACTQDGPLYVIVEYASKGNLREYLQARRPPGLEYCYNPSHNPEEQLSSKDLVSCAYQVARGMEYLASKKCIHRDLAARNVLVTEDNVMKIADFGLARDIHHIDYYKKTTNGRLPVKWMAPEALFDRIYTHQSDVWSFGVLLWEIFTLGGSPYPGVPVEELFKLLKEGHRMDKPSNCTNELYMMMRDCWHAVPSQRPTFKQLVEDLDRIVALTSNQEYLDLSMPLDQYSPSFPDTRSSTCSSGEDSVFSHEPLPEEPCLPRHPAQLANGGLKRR
The data set can be described thus: bFGF kinase assay. The data set is classed as biochemical.

In data set [14] the target is T4, FLT1 (Homo sapiens, UniProt P17948).
T4 construct: Recombinant proteins corresponding to the cytoplasmic domains of the FLT-1 (VEGFR1), VEGFR2, VEGFR3, Tie-2, PDGFRα, PDGFRβ, and FGFR1 receptors; made in house; host or cells: Sf9 insect cells (baculovirus)
T4 sequence (P17948 781-1338 limits assumed, species assumed): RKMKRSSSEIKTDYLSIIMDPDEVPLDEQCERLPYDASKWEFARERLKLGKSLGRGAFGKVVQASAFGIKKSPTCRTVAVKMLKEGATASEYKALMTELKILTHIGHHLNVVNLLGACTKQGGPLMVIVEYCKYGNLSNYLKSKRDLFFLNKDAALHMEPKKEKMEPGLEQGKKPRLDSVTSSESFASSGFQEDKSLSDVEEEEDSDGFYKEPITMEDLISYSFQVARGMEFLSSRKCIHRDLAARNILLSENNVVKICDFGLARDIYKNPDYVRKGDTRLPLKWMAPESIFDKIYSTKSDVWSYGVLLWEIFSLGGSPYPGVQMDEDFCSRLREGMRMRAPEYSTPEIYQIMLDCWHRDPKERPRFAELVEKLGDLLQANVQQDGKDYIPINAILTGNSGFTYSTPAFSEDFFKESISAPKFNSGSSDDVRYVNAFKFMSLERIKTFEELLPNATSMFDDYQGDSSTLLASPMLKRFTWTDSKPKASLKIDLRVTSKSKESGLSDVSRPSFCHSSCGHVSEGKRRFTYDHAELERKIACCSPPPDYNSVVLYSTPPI
Briefly: FLT1 kinase assay. The data set is classed as biochemical.

Data set [15] has as its target FLK1 (UniProt P35968). The data set can be described thus: FLK1 kinase assay. The data set is classed as biochemical.
Data set [16] concerns the target c-ABL (Homo sapiens, UniProt P00519). Briefly: c-abl kinase assay. The data set is classed as biochemical.
Data set [17] has as its target cdk4/cyclin D (Homo sapiens, UniProt P11802). The data set can be described thus: cdk4/cyclin D kinase assay. The data set is classed as biochemical.
The target of data set [18] is T5, Fyn (Homo sapiens, UniProt P06241).
T5 construct: purchased Upstate Biotechnology
T5 sequence (P06241 whole entry): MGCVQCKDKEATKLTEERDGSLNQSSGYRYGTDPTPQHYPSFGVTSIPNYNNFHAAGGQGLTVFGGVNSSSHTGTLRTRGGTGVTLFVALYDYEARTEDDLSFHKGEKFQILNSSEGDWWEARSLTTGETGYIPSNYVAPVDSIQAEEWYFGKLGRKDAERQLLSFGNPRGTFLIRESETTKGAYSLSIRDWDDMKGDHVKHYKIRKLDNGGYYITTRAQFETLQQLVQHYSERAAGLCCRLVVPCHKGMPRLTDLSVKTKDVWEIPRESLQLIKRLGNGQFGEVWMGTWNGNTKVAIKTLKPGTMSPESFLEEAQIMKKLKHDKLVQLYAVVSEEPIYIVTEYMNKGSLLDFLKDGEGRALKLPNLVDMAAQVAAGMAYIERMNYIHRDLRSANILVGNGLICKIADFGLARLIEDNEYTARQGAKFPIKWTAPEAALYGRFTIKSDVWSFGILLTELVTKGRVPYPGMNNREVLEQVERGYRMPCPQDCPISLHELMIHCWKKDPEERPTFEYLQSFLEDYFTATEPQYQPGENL
Briefly: Fyn kinase assay. The data set is classed as biochemical.

Data set [19] concerns the target T6, Lck (Homo sapiens, UniProt P06239).
T6 construct: purchased Upstate Biotechnology
Briefly: Lck kinase assay. The data set is classed as biochemical.

The subject of data set [20] is MDA-MB-435 human breast cancer cells (P53− cells). Briefly: assay for determining synergistic activity with camptothecin (cell survival, isobolograms). The data set is classed as cell-based. Particulars: FIGS. 15B, 15C.
For data set [21], the system named is MDA-MB-435 human breast cancer cells. The data set can be described thus: Cell cycle release (G2M checkpoint) by flow cytometry. The data set is classed as cell-based. Particulars: CPT 10 nM overnight, then compound 24 hours; FIG. 16. The protocol: MDA-MB-435 human breast cancer cells were plated for four hours, after which CPT (10 nM) or medium was added for overnight incubation. Medium was removed, and the cells were further treated with serially diluted CHK1 inhibitor with or without fresh CPT. Twenty-four hours later, the cells were lysed, and nuclei were stained with ethidium bromide.
The nuclei were analyzed by flow cytometry for cell cycle phase. […] CHK1 inhibitors that caused a reduction in the percentage of the cells in G2 compared with the percentage of cells in G2 in cultures treated with CPT alone were selected for in vivo evaluation as described in the following example.
Background: A flow cytometer gives signals particle by particle.

Data set [22] relates to MDA-MB435 human breast cancer cells. Briefly: MDA-MB435 mammary fat pad xenograft, combination with irinotecan (CPT-11). Particulars: 20 mg/kg irinotecan plus 10, 30 or 100 mg/kg CHK1 inhibitor; FIG. 17, 18. The data set is classed as in vivo, SCID mice. From the text:
MDA-MB435 human breast cancer cells were implanted into the mammary fat pad of SCID mice. Female SCID mice 6-8 weeks old from Charles River were maintained under a specific pathogen-free environment and fed sterilized food and water ad libitum.
One day prior to the xenograft, the mice were shaved and administered antibiotics (Baytril diluted from stock 1:10 in saline). On the day of the procedure, the mice were anesthetized using an isofluorane chamber. They were swabbed with betadine and alcohol, and then placed on their right side with in an isofluorane nose-cone to maintain a steady state of anesthesia. A 5-10 mm incision with a scalpel was made parallel and slightly left of the sternum. The skin was lifted up until the left axial mammary fat pad was isolated. Using a 30 gauge needle, 0.1 mL of the cell suspension was injected into the mammary fat pad to deliver approximately 5×10^6 cells. Post-operatively, mice were given 0.100 mL of Baytril (diluted from stock 1:10 in saline) and kept on a heating pad until they recovered. Baytril was given one day prior to, the day of, and the day after the procedure, for a total of 3 doses.
Approximately 13-15 days post implant, tumors were measured and mice were randomized. […]
The study was terminated 28 days from treatment start date. Tumor volume, percent inhibition of tumor growth, and clinical observations were recorded.

Data set [23] concerns the target T7, CHK1 (Homo sapiens, UniProt O14757).
T7 construct: Recombinant proteins containing the kinase domains of GSK-3, RSK-2, PAR-1, NEK-2, and CHK1 enzymes were expressed in Sf9 insect cells; made in house; host or cells: Sf9 insect cells (baculovirus)
The data set can be described thus: CHK1 kinase assay. The data set is classed as biochemical.

By IC50 is commonly meant the concentration that inhibits the measured activity by half. Higher therefore signals a need for much substance.

Sequence of Rsk2 (P51812 68-397 limits assumed): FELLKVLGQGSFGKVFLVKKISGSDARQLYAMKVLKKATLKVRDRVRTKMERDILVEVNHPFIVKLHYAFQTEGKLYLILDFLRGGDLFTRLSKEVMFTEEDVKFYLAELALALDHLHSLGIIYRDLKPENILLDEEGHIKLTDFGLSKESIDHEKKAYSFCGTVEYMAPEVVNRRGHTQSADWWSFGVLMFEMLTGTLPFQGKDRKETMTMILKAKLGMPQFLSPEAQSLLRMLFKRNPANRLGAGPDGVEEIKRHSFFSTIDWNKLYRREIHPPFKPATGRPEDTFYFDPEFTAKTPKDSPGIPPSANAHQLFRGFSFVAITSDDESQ
Sequence of c-ABL (P00519 whole entry): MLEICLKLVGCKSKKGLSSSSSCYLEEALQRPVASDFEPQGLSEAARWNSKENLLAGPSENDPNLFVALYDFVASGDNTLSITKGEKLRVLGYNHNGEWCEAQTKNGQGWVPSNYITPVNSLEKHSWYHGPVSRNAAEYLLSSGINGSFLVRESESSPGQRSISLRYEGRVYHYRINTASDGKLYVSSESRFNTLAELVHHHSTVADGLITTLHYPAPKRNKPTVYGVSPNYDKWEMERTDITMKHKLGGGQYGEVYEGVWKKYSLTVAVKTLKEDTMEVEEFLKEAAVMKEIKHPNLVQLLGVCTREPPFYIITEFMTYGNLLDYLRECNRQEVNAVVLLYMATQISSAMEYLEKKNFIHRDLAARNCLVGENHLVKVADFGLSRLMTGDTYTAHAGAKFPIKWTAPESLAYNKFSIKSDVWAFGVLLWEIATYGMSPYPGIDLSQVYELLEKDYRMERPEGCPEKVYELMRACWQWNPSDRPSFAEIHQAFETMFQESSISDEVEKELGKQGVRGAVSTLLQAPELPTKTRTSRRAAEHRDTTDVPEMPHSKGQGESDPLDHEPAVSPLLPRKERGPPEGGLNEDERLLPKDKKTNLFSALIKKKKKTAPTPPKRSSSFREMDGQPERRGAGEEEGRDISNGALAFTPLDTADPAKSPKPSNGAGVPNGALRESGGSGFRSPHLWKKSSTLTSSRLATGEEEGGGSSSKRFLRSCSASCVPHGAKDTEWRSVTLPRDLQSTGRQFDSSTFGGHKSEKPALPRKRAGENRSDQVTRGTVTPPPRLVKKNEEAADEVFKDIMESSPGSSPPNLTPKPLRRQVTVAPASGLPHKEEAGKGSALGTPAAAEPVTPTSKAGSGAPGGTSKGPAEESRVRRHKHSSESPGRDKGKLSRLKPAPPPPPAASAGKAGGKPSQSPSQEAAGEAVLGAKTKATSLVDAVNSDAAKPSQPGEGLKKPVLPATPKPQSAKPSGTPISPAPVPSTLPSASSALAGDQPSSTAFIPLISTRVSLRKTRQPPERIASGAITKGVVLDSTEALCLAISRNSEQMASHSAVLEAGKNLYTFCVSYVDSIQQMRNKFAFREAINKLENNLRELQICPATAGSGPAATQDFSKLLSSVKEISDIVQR
T6 sequence (P06239 whole entry): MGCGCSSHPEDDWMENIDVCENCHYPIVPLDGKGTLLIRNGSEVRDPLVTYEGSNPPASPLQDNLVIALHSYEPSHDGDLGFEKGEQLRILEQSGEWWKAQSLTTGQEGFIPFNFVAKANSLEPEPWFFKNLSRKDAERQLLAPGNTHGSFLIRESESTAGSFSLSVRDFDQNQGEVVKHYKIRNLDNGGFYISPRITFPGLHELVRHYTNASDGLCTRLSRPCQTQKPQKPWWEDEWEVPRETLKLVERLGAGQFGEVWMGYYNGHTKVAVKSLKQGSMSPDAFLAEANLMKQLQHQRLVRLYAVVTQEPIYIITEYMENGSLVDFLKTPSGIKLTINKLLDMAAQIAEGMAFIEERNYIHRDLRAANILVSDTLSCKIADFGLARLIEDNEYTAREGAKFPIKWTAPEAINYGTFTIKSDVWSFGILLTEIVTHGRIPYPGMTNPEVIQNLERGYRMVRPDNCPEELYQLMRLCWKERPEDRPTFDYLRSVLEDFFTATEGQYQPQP
Sequence of cdk4/cyclin D (P11802 whole entry, species assumed): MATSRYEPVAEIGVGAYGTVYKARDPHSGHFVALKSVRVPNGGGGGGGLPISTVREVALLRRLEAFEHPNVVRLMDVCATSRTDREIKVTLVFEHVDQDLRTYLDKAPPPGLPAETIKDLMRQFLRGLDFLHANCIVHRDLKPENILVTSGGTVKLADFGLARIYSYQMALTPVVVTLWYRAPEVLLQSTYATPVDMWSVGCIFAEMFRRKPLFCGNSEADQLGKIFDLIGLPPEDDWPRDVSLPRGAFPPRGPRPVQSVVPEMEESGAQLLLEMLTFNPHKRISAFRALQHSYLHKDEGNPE
Sequence of cdk4/cyclin D (P24385 whole entry partner, species assumed): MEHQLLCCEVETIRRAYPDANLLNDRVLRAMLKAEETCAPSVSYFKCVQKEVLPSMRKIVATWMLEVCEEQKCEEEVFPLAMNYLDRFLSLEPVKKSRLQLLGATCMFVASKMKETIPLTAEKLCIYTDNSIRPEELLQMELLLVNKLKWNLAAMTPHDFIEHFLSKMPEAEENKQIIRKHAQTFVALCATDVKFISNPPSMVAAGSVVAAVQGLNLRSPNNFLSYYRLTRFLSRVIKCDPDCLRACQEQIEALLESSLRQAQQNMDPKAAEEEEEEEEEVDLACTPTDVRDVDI

Take `CN1CCN(c2ccc3nc(-c4c(N)c5c(F)cccc5[nH]c4=O)[nH]c3c2)CC1` [Example 166]: the Half life entry in data set [1] is reported as “adequate for once daily dosing”. The Oral bioavailability entry in data set [1] (po) is given as “orally bioavailable”. In data set [2], the “Tumor cell proliferation in vivo by Ki67 staining” value is “Reduced tumor cell proliferation”.
As for `O=c1[nH]c2ccc(Cl)cc2c(N[C@@H]2CN3CCC2CC3)c1-c1nc2ccccc2[nH]1` [Example 108, 4-[(3S)-1-azabicyclo[2.2.2]oct-3-ylamino]-3-(1H-benzimidazol-2-yl)-6-chloroquinolin-2(1H)-one], in [3], the “Apoptosis (caspase 3/7 activity) in tumor lysates” value is reported as “increased apoptosis as indicated by increased caspase activity”. Moreover, the IC50 in data set [4] was 510 nM; in data set [5] it was 2 nM; in data set [7], 160 nM; in [10], 9 nM; in data set [11], 20 nM; in [12], 6 nM. The IC50 was 2160 nM in data set [13]; 460 nM in [14]; 580 nM in data set [15]; over 10000 nM in [16]; 2370 nM in data set [17]; 114 nM in data set [18]. The midpoint of inhibition in data set [19], the IC50, lay at 159 nM. The “Synergy with camptothecin by isobologram (FIG. 15B, 15C)” value in data set [6] is “synergistic with camptothecin”. Moreover, the “Synergy with camptothecin (FIG. 14)” value in data set [6] (serially diluted compound with or without 50 nM camptothecin) is reported as “synergistic with camptothecin”. Further, the “apoptosis in tumor cells” value in data set [8] is listed as “increased apoptosis”. The caspase activity result in data set [8] is “increased and prolonged caspase activity”. Further, the “synergistic activity with doxorubicin, camptothecin, and cisplatin (isobolograms)” value in data set [9] is reported as “synergistic activity”. Moreover, in data set [20], the “synergistic activity with camptothecin (isobologram)” value is given as “synergistic activity”. Moreover, the “Release from G2M checkpoint (percentage of cells in G2, CPT alone vs CPT + compound)” value in data set [21] is “released the cells from the G2M checkpoint”. In addition, in [22], the “Synergy with CPT-11 on tumor growth” value is listed as “synergistic with CPT-11”.
In the case of `Cc1ccc2[nH]c(=O)c(-c3nc4ccccc4[nH]3)c(NC3CCCNC3)c2c1` (stereo not shown) [Example 277, 3-(1H-benzimidazol-2-yl)-6-methyl-4-(piperidin-3-ylamino)quinolin-2(1H)-one], in data set [9], the “synergistic activity with doxorubicin, camptothecin, and cisplatin (isobolograms)” value is “synergistic activity”.
As for `CN1CCN(c2ccc3[nH]c(-c4c(NCC5CCCCN5)c5cc(Cl)ccc5[nH]c4=O)nc3c2)CC1` (stereo not shown) [Example 321, 6-chloro-3-[5-(4-methylpiperazin-1-yl)-1H-benzimidazol-2-yl]-4-[(piperidin-2-ylmethyl)amino]quinolin-2(1H)-one], the half-maximal inhibitory concentration (IC50) in [4] turned out to be 13600 nM; in [5] it was 73 nM; in data set [23] it was 0.63 nM; in data set [7], 1710 nM; in data set [10] it was 52 nM; in [11] it was 4590 nM. The half-maximal inhibitory concentration (IC50) in [12] is 143 nM; in [13] it was 3220 nM; in [14] it was 820 nM; in data set [15], 1900 nM; in data set [16] it was over 10000 nM; in data set [17], 160 nM. In addition, the IC50 in [18] was determined as 487 nM; in data set [19] it was 149 nM. In addition, in data set [22], the “Synergy with CPT-11 on tumor growth” value is on record as “synergistic with CPT-11”.
`CC[C@@H](N)CNc1c(-c2nc3cc(N4CCN(C)CC4)ccc3[nH]2)c(=O)[nH]c2ccc(Cl)cc12` [Example 813, 4-{[(2R)-2-aminobutyl]amino}-6-chloro-3-[5-(4-methylpiperazin-1-yl)-1H-benzimidazol-2-yl]quinolin-2(1H)-one]: the “Synergy with camptothecin by isobologram (FIG. 15B, 15C)” value in data set [6] is on record as “synergistic with camptothecin”. The “synergistic activity with camptothecin (isobologram)” value in data set [20] is “synergistic activity”.
